The values below come from US7109380B2, “Cyclopentenedione antifungal compounds and methods for their use” (The University of Mississippi, priority 2004, dated 2006).

Assay type in all cases: cell-based
Experiment [1] deals with Cryptococcus neoformans ATCC 90113. Put plainly: In vitro antifungal susceptibility testing (modified NCCLS method). The settings on record: for MFC / MIC: ATCC90113.
A further experiment relates to Phomopsis obscurans. The experiment can be described thus: 96-well microtiter fungal growth assay.
The test system of the next experiment is Phomopsis viticola. Put plainly: 96-well microtiter fungal growth assay. In a few lines: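 Conidial suspensions adjusted to 1.0×10^6 conidia/mL challenged with compounds at final 0.3, 3.0 and 30.0 μM, duplicate per dose, repeated twice. Incubated at 24±1 °C with 12 h photoperiod; growth measured as absorbance at 620 nm at 48 and 72 h (120 h for Phomopsis). Means compared by ANOVA and Fisher's protected LSD.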

Values after ≈ are worked out from the molar mass of the structure shown. Read-outs that look alike come from different tables or passages of the source.
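Throughout, for Mean percent fungal growth inhibition of Phomopsis viticola: percent relative to untreated positive growth controls.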

As for `COC(/C=C/c1ccccc1)=C1\C(=O)C=C(C)C1=O` [Compound 1, coruscanone A], the MFC in experiment [1] (Cryptococcus neoformans ATCC 90113, Table 1, read-out: MFC (Minimum Fungicidal Concentration)) amounted to 6.25 µg/mL (≈ 24.6 µM); in experiment [1] (Cryptococcus neoformans, Cr. neoformans ATCC 90113, Table 3, read-out: MFC), 2.5 µg/mL (≈ 9.83 µM). The MIC in experiment [1] (Cryptococcus neoformans ATCC 90113, Table 1, read-out: MIC (Minimum Inhibitory Concentration)) turned out to be 6.25 µg/mL (≈ 24.6 µM); in experiment [1] (Cryptococcus neoformans, Cr. neoformans ATCC 90113, Table 3, read-out: MIC) it was 2.5 µg/mL (≈ 9.83 µM). For the same compound, the IC50 in experiment [1] (Cryptococcus neoformans, ATCC90113, read-out: IC50 (50% inhibitory concentration)) is 1.5 µg/mL (≈ 5.9 µM); with Phomopsis obscurans (Paraphomopsis obscurans, Phomopis obscurans, at 120 hr, read-out: IC50 (growth inhibition)), less than 3100 nM; in the experiment on Phomopsis viticola (Diaporthe ampelina, 72 h, read-out: IC50 (growth inhibition)), less than 1550 nM. In addition, the “Percent change in fungal growth vs control (negative = inhibition)” value was 3.3 ± 19.9% in the experiment on Phomopsis obscurans (0.3 μm, 120 hrs); 33.3 ± 41.6% in the experiment on Phomopsis obscurans (0.3 μm, 144 hrs); −37.4 ± 25.0% with Phomopsis obscurans (3.0 μm, 120 hrs); −13.3 ± 36.0% in the experiment on Phomopsis obscurans (3.0 μm, 144 hrs); −88.5 ± 3.4% in the experiment on Phomopsis obscurans (30 μm, 120 hrs); −96.9 ± 1.2% in the experiment with Phomopsis obscurans (30 μm, 144 hrs). Besides, the “Mean percent fungal growth inhibition of Phomopsis viticola” value was 7.4 ± 124.1% in the experiment with Phomopsis viticola (0.3 μm, 120 hrs); 423.2 ± 185.3% with Phomopsis viticola (0.3 μm, 144 hrs); −71.1 ± 50.9% with Phomopsis viticola (3.0 μm, 120 hrs); −71.3 ± 15.7% with Phomopsis viticola (3.0 μm, 144 hrs); −61.8 ± 86.8% with Phomopsis viticola (30 μm, 120 hrs); −79.1 ± 13.3% with Phomopsis viticola (30 μm, 144 hrs).
